Results filed as inconclusive are left out. Active and inactive are the calls of the source. No rule for the calls is given here; tested in MIN6 cells.

The nature of this test: GFP-wavelength compound autofluorescence in cells – imaging, high-content imaging, artefact control, dose response (AID 2124).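 As to all read-outs here: cells exposed to compound for 48 hours before fixing.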 Conditions: cells, GFP-channel autofluorescence, high-content imaging, at 10 µM; for z-score: stronger effect = higher value.

Regarding `O=C(NC1(C(F)(F)F)NC(=O)N(c2ccc(F)c(Cl)c2)C1=O)c1ccncc1` (configuration not stated), the z-score is -0.39 (inactive) and the cell count was determined as 3240 cells.

As for `Cc1ccc(S(=O)(=O)C(C#N)c2nc3ccccc3nc2N2CCC(C)CC2)cc1` (configuration not stated), the z-score is -0.33 (inactive) and the cell count was 3260 cells.

As for `CN(C)c1ccc(/C=C2\N=C(c3ccc(Cl)c([N+](=O)[O-])c3)NC2=O)cc1`, the z-score was -0.33 (inactive) and the cell count stood at 2940 cells.

On to `Cc1cccc(-c2ncc(CN3CCCC(CO)(Cc4ccccc4C)C3)cn2)c1` (configuration not stated), for which the z-score was -0.35 (inactive) and the cell count was determined as 3340 cells.

Turning to `Fc1ccc(C2NCCn3cccc32)cc1` (configuration not stated), the z-score is -0.38 (inactive) and the cell count was found to be 2950 cells.

Regarding `Cc1cnc(NC(=O)CN2CCN(c3ccccn3)CC2)s1`, the z-score was -0.39 (inactive) and the cell count came to 2360 cells.

In the case of `COc1ccc(C(=O)Nn2cnnc2)cc1OC`, the z-score was -0.39 (inactive) and the cell count came to 2930 cells.

Regarding `CC(=O)C1=C(C)Nc2ncnn2C1c1ccc(Cl)cc1Cl` (configuration not stated), the z-score was -0.33 (inactive) and the cell count turned out to be 3270 cells.

Turning to `CC(=O)C(=Cc1cn(-c2ccccc2)nc1-c1ccccc1)C(C)=O`, the z-score was -0.32 (inactive) and the cell count is 3020 cells.

`Cc1c(C(=O)O)cccc1-c1ccc(/C=C2/NC(=O)N(c3ccccc3)C2=O)o1`: the z-score was -0.39 (inactive) and the cell count turned out to be 3120 cells.

For the compound `CC1CC(C)CN(C(=O)c2cccc3c2-c2ccccc2C3=O)C1` (configuration not stated), the z-score was -0.38 (inactive) and the cell count was 3240 cells.

On to `CN(C)c1ccc(/C=N/NC(=O)CN(c2ccccc2Cl)S(C)(=O)=O)cc1Br`, for which the z-score is -0.39 (inactive) and the cell count was 3330 cells.

As for `O=C1C2C3C=CC(C3)C2C(=O)N1CCc1ccccc1` (configuration not stated), the z-score is -0.33 (inactive) and the cell count came out at 3430 cells.

In the case of `COC(=O)c1c[nH]n2c(=O)c(Cc3ccc(F)cc3Cl)c(C)nc12`, the z-score is -0.33 (inactive) and the cell count was found to be 3100 cells.

`CN(C)/C=C1/Nc2ccccc2C1=O`: the z-score is -0.36 (inactive) and the cell count was found to be 3060 cells.

Regarding `CC(C)SC1=NC(C)(C)C=C(/C=C/c2ccc(Cl)cc2Cl)N1`, the z-score is -0.36 (inactive) and the cell count was 2940 cells.

As to `Cc1ccc(C(=O)NN2C(=O)/C(=C/c3cn(C)c4ccccc34)SC2=S)cc1`, the z-score is -0.27 (inactive) and the cell count was 3060 cells.

On to `COc1cccc(C(=O)Nc2ccccc2C(=O)N2CCCC2)c1`, for which the z-score was -0.39 (inactive) and the cell count came out at 3120 cells.

Take `O=c1c(N2CCOCC2)c(N2CCOCC2)c1=O`: the z-score was -0.39 (inactive) and the cell count was 3130 cells.

As for `COc1ccc2c(C(=O)CN(C)C3CCCCC3)c[nH]c2c1`, the z-score was -0.37 (inactive) and the cell count amounted to 3190 cells.

As for `NS(=O)(=O)c1ccc(NC=C2C(=O)OC3(CCCCC3)OC2=O)cc1`, the z-score is -0.25 (inactive) and the cell count was 3080 cells.

As for `CCN(CC)c1ccc(C=C(c2nnnn2-c2ccccc2)c2nnnn2-c2ccccc2)cc1`, the z-score is -0.26 (inactive) and the cell count came to 2370 cells.

`Oc1c(/C=C/C=C/C=Nc2ccccc2)sc(=S)n1Cc1ccccc1`: the z-score is -0.33 (inactive) and the cell count stood at 2740 cells.

For the compound `CCN(CC)CCn1c(=S)[nH]c2ccc(Cl)cc2c1=O`, the z-score is -0.33 (inactive) and the cell count worked out at 2890 cells.

In the case of `Cc1cccc(OCCNc2nc3c(c(=O)n(C)c(=O)n3C)n2C)c1`, the z-score is -0.33 (inactive) and the cell count is 3060 cells.

Consider `CCCCNC(=S)NC(=O)c1ccc(Cl)cc1Cl`, for which the z-score is -0.39 (inactive) and the cell count amounted to 3500 cells.

The values above are taken from PubChem BioAssay AID2124 (Sanford-Burnham Center for Chemical Genomics, 2009).
